Columns and labels:
EAE [1] = conditions: mouse, in vivo; cited from earlier work
liver triglyceridemia = conditions: mice lacking the LXRα and LXRβ receptors; cited from earlier work
SF-1 (human SF-1) = target: T1, SF-1 (human SF-1) (Homo sapiens, UniProt Q13285); test: Transcriptional assay of SF-1 as GAL4 hybrid; assay type: cell-based; conditions: same format as the GAL4-RORγ assay
T1 construct: human SF-1 (NR5A1, aa 198-462); expressed in transfected cells; host or cells: CHO cells, transient transfection
T1 sequence (Q13285 198-461 limits assumed): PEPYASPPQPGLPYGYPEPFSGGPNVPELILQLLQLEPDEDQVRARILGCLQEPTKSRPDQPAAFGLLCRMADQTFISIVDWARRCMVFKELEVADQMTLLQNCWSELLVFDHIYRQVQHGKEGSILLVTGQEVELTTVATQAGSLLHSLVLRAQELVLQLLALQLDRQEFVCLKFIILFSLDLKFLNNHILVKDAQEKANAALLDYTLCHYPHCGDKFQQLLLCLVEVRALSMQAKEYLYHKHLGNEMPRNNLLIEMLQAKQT
Method: This example also describes several additional tests that were commonly performed to confirm the authenticity of a hit to RORγ. These tests also verified the validity of the transcriptional and biochemical assays used. […] In some cases, close analogs of a confirmed hit were obtained by synthesis or purchase from a commercial source. The series of compounds related to the confirmed hit was then tested in the biochemical and transcriptional assays. The rank order of the potency of the compounds was then compared. […] The data imply in turn that the compounds are binding to the same binding pocket. […]
Four hours after transfection, cells were dislodged with trypsin and seeded into a 384-well plate at 8,000 cells/well using a Titertek Multidrop 384. […] After incubation for 2 hours at 37 degrees centigrade, the conversion of resazurin to resorufin was measured by fluorescence (excitation at 570 nm and emission at 615 nm). […] Percent viability was determined as 2 hour fluorescence, minus background at t=0 hours, normalized to DMSO controls. […] Luminescence is detected with a Victor 2-V plate reader (Perkin-Elmer) and normalized to luciferase activity of DMSO control wells alone.

EAE [2] = test: EAE model, SJL/J mice immunized with PLP139-151, osmotic pump; assay type: in vivo
TH-17 cells = test: TH-17 cell frequency in lymph nodes of PLP-immunized SJL/J mice; assay type: in vivo; conditions: 100 mg/kg OR-1050 in HRC-6 daily, day 9 after PLP immunization; fraction of total CD4+ cells
Method: FIGS. 11D-F SJL/J mice were immunized with 75 μg PLP139-151 (Day 0). Osmotic pumps delivering vehicle or OR-1050 ([…]) were inserted at Days 3 and 4. Day of onset (FIG. 11E) compares the first day when EAE severity is 1 or higher. The ratio of Th-17 cells (CD4^+CD8^−IL17^+) to […] was analyzed in a separate study (F FIG. 11F) at day 9 after immunization with PLP where mice had been dosed daily with OR-1050 (100 mg/kg in HRC-6) since […]. Statistics (panels A, B, D, F) were performed by Student's t-test. *, P<0.05; #, P<0.01 (mean±sem, n=7-10) or by the Mann-Whitney rank order test (FIGS. 11C, E, median values shown).
Since OR-1050 inhibits TH-17 cells in ex vivo culture, we also investigated whether TH-17 cell frequency was affected in OR-1050-treated animals. SJL/J female mice (n=9/group) were treated with 100 mg/kg OR-1050 in HRC-6 beginning two days before immunization with PLP (as described above) and continuing until 8 days after immunization. Animals were sacrificed on day 9, and TH-17 cells analyzed from pooled axillary, brachial, and inguinal lymph nodes from each animal. We found a 35% reduction in TH-17 frequency in lymph nodes of SJL/J mice (FIG. 11F) as a fraction of the total CD4^+ cell population. The change in TH-17 frequency with OR-1050 treatment was statistically significant.

thymocytes = test: Thymus weight and thymocyte subpopulations after oral dosing in C57BL/6 mice; assay type: in vivo; conditions: mouse, in vivo, 100 mg/kg
Method: In addition, the total number and the fraction of the major thymocyte subpopulations including CD4^+CD8^+ (DP), CD4^+CD8^- (SP4^+) and CD4^-CD8^+ (SP8^+) were measured by cell surface staining followed by FACS analysis. […] The volume of cells was adjusted to 8 mls. Debris from the thymus was allowed to settle, and a 200 μl aliquot of cells was incubated with fluorescent antibodies to CD4 and CD8 for 15 minutes at room temperature. […] Before analytical flow cytometry was carried out (FACS Calibur, Becton Dickinson), Caltag counting beads (from Invitrogen) were added to allow absolute quantitation of cell number. Thymus subpopulations were determined after gating for live cells. […] Dexamethasone reproducibly induces rapid apoptosis of DP thymocytes and reduction of thymic mass ([…], Drupt et al. 2000; Zubkova, Mostowski et al. 2005).

Row | Structure (SMILES) | development of murine EAE (EAE [1]) | liver triglyceridemia (liver triglyceridemia) | effect on the transcription of SF-1 (SF-1 (human SF-1)) | paralytic severity, in words (EAE [2]; FIG. 11D) | day of onset, in words (EAE [2]; FIG. 11E) | area under the severity curve (mean±sem) (EAE [2]; estimated 30 mg/kg daily, vehicle 14.5±1.6, p<0.01) | reduction in TH-17 frequency in lymph nodes (TH-17 cells) | Frequency of DP (% of total cells) (thymocytes) | Total cells per spleen (×10^−6) DP (thymocytes) | Total cells per spleen (×10^−6) SP4 (thymocytes) | Total cells per spleen (×10^−6) SP8 (thymocytes)
1 | O=S(=O)(c1ccccc1)N(CC(F)(F)F)c1ccc(C(O)(C(F)(F)F)C(F)(F)F)cc1 [Compound T0901317, N-(2,2,2-Trifluoro-ethyl)-N-[4-(2,2,2-trifluoro-1-hydroxy-1-trifluoromethyl-ethyl)-phenyl]-benzenesulfonamide, reference compound] | inhibit the development of murine EAE | no effect on liver triglyceridemia | no effects |  |  |  |  |  |  |  | 
2 | CCN(c1ccc(C(O)(C(F)(F)F)C(F)(F)F)cc1)S(=O)(=O)c1ccc([N+](=O)[O-])cc1 [OR-1050, N-Ethyl-4-nitro-N-[4-(2,2,2-trifluoro-1-hydroxy-1-trifluoromethyl-ethyl)-phenyl]-benzenesulfonamide] |  |  | no effects | reduced paralytic severity | significantly delayed | 5.3±2.7 | 35% | 56.7 ± 3.1% | 61.5 ×10^−6 | 8.1 ×10^−6 | 2.5 ×10^−6

Reference: patent US8389739B1, “Modulators of retinoid-related orphan receptor gamma” (Orphagen Pharmaceuticals, priority 2006, dated 2013)
